The values that follow come from article PMC2782732 (ACS chemical biology, 2008).

For this assay, the target named is dengue E protein (Dengue virus type 2, UniProt P12823). The format is binding. To be noted: BOG plus dengue E protein, on-resonance irradiation at −2 ppm.

Each structure is given as a SMILES string.

Turning to `CCCCCCCCO[C@@H]1O[C@H](CO)[C@@H](O)[C@H](O)[C@H]1O` [BOG, N-octyl-β-D-glucoside], the “STD NMR signal of ligand with E protein” value is “strong signals”.
